According to ChEMBL document CHEMBL2146447, “Synthesis and antimicrobial activity of amido linked pyrrolyl and pyrazolyl-oxazoles, thiazoles and imidazoles” (2011):
Active and inactive are the calls of the source. The calls are words filed in the database; no cut-off is given here.

Key:
Assay type in all cases: functional
Staphylococcus aureus [1] = experiment: Antibacterial activity against Staphylococcus aureus assessed at 50 ug after 24 hrs by agar well diffusion method; details: for zone of inhibition at 50 µg/disc: read-out: DIZ
Staphylococcus aureus [2] = experiment: Antibacterial activity against Staphylococcus aureus at 100 ug after 24 hrs by agar well diffusion method; details: for zone of inhibition at 100 µg/disc: read-out: DIZ
Bacillus subtilis [3] = experiment: Antibacterial activity against Bacillus subtilis at 50 ug after 24 hrs by agar well diffusion method; details: for zone of inhibition at 50 µg/disc: read-out: DIZ
Bacillus subtilis [4] = experiment: Antibacterial activity against Bacillus subtilis at 100 ug after 24 hrs by agar well diffusion method; details: for zone of inhibition at 100 µg/disc: read-out: DIZ
Pseudomonas aeruginosa [5] = experiment: Antibacterial activity against Pseudomonas aeruginosa at 50 ug after 24 hrs by agar well diffusion method; details: for zone of inhibition at 50 µg/disc: read-out: DIZ
Pseudomonas aeruginosa [6] = experiment: Antibacterial activity against Pseudomonas aeruginosa at 100 ug after 24 hrs by agar well diffusion method; details: for zone of inhibition at 100 µg/disc: read-out: DIZ
Klebsiella pneumoniae [7] = experiment: Antibacterial activity against Klebsiella pneumoniae at 50 ug after 24 hrs by agar well diffusion method; details: for zone of inhibition at 50 µg/disc: read-out: DIZ
Klebsiella pneumoniae [8] = experiment: Antibacterial activity against Klebsiella pneumoniae at 100 ug after 24 hrs by agar well diffusion method; details: for zone of inhibition at 100 µg/disc: read-out: DIZ
Aspergillus niger [9] = experiment: Antifungal activity against Aspergillus niger at 50 ug after 48 hrs by agar well diffusion method; details: for zone of inhibition at 50 µg/disc: read-out: DIZ
Aspergillus niger [10] = experiment: Antifungal activity against Aspergillus niger at 100 ug after 48 hrs by agar well diffusion method; details: for zone of inhibition at 100 µg/disc: read-out: DIZ
Penicillium chrysogenum [11] = experiment: Antifungal activity against Penicillium chrysogenum at 50 ug after 48 hrs by agar well diffusion method; details: for zone of inhibition at 50 µg/disc: read-out: DIZ
Penicillium chrysogenum [12] = experiment: Antifungal activity against Penicillium chrysogenum at 100 ug after 48 hrs by agar well diffusion method; details: for zone of inhibition at 100 µg/disc: read-out: DIZ

SMILES	zone of inhibition at 50 µg/disc (Staphylococcus aureus [1]) [mm]	zone of inhibition at 100 µg/disc (Staphylococcus aureus [2]) [mm]	zone of inhibition at 50 µg/disc (Bacillus subtilis [3]) [mm]	zone of inhibition at 100 µg/disc (Bacillus subtilis [4]) [mm]	zone of inhibition at 50 µg/disc (Pseudomonas aeruginosa [5]) [mm]	zone of inhibition at 100 µg/disc (Pseudomonas aeruginosa [6]) [mm]	zone of inhibition at 50 µg/disc (Klebsiella pneumoniae [7]) [mm]	zone of inhibition at 100 µg/disc (Klebsiella pneumoniae [8]) [mm]	zone of inhibition at 50 µg/disc (Aspergillus niger [9]) [mm]	zone of inhibition at 100 µg/disc (Aspergillus niger [10]) [mm]	zone of inhibition at 50 µg/disc (Penicillium chrysogenum [11]) [mm]	zone of inhibition at 100 µg/disc (Penicillium chrysogenum [12]) [mm]	also measured
O=C(/C=C/c1ccccc1)Nc1nc(-c2ccc(Cl)cc2)cs1	29	32	27	29	25	27	33	35	31	33	32	35	–
Cc1ccc(-c2c[nH]c(NC(=O)c3n[nH]cc3-c3ccccc3)n2)cc1	8	9	9	12	9	10	11	13	8	9	8	11	–
O=C(Nc1nc(-c2ccc(Cl)cc2)co1)C1=NNCC1c1ccccc1 (centres undefined)	17	18	17	20	17	19	22	24	23	25	24	27	–
Cc1ccc(-c2coc(NC(=O)c3n[nH]cc3-c3ccccc3)n2)cc1	–	–	–	–	–	–	–	–	–	–	–	–	diameter of the inhibition zone (DIZ) (Staphylococcus aureus [1]): inactive; diameter of the inhibition zone (DIZ) (Staphylococcus aureus [2]): inactive; diameter of the inhibition zone (DIZ) (Bacillus subtilis [3]): inactive; diameter of the inhibition zone (DIZ) (Bacillus subtilis [4]): inactive; diameter of the inhibition zone (DIZ) (Pseudomonas aeruginosa [5]): inactive; diameter of the inhibition zone (DIZ) (Pseudomonas aeruginosa [6]): inactive; diameter of the inhibition zone (DIZ) (Klebsiella pneumoniae [7]): inactive; diameter of the inhibition zone (DIZ) (Klebsiella pneumoniae [8]): inactive; diameter of the inhibition zone (DIZ) (Aspergillus niger [9]): inactive; diameter of the inhibition zone (DIZ) (Aspergillus niger [10]): inactive; diameter of the inhibition zone (DIZ) (Penicillium chrysogenum [11]): inactive; diameter of the inhibition zone (DIZ) (Penicillium chrysogenum [12]): inactive
Cc1ccc(-c2c[nH]c(NC(=O)/C=C/c3ccccc3)n2)cc1	18	20	21	23	14	16	23	25	18	21	20	23	–
Cc1ccc(-c2coc(NC(=O)/C=C/c3ccccc3)n2)cc1	–	–	–	–	–	–	–	–	–	–	–	–	diameter of the inhibition zone (DIZ) (Staphylococcus aureus [1]): inactive; diameter of the inhibition zone (DIZ) (Staphylococcus aureus [2]): inactive; diameter of the inhibition zone (DIZ) (Bacillus subtilis [3]): inactive; diameter of the inhibition zone (DIZ) (Bacillus subtilis [4]): inactive; diameter of the inhibition zone (DIZ) (Pseudomonas aeruginosa [5]): inactive; diameter of the inhibition zone (DIZ) (Pseudomonas aeruginosa [6]): inactive; diameter of the inhibition zone (DIZ) (Klebsiella pneumoniae [7]): inactive; diameter of the inhibition zone (DIZ) (Klebsiella pneumoniae [8]): inactive; diameter of the inhibition zone (DIZ) (Aspergillus niger [9]): inactive; diameter of the inhibition zone (DIZ) (Aspergillus niger [10]): inactive; diameter of the inhibition zone (DIZ) (Penicillium chrysogenum [11]): inactive; diameter of the inhibition zone (DIZ) (Penicillium chrysogenum [12]): inactive
O=C(Nc1nc(-c2ccccc2)c[nH]1)c1c[nH]cc1-c1ccccc1	15	17	18	20	14	15	20	22	16	18	17	20	–
